Experimental data taken from PubChem BioAssay (NCI).
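Results reflect a 48-hour exposure of cells in 96-well plates to compound at five concentrations. The concentration for full growth arrest is given as TGI.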

Assays:
Assay in all cases: NCI anticancer screen, dose series, 48 h
[1] = tested on: 786-0 renal
[2] = tested on: A498 renal
[3] = tested on: A549 NSCLC
[4] = tested on: ACHN renal
[5] = tested on: BT-549 breast
[6] = tested on: CAKI-1 renal
[7] = tested on: CCRF-CEM leukemia
[8] = tested on: COLO 205 colon
[9] = tested on: DU-145 prostate
[10] = tested on: EKVX NSCLC
[11] = tested on: HCC-2998 colon
[12] = tested on: HCT-116 colon
[13] = tested on: HCT-15 colon
[14] = tested on: HL-60(TB) leukemia
[15] = tested on: HOP-62 NSCLC
[16] = tested on: HOP-92 NSCLC
[17] = tested on: HS 578T breast
[18] = tested on: HT29 colon
[19] = tested on: IGROV1 ovarian
[20] = tested on: K-562 leukemia
[21] = tested on: KM12 colon
[22] = tested on: LOX IMVI melanoma
[23] = tested on: M14 melanoma
[24] = tested on: MALME-3M melanoma
[25] = tested on: MCF7 breast
[26] = tested on: MDA-MB-231 breast
[27] = tested on: MDA-MB-435
[28] = tested on: MDA-N
[29] = tested on: MOLT-4 leukemia
[30] = tested on: NCI-H226 lung
[31] = tested on: NCI-H23 lung
[32] = tested on: NCI-H460 lung
[33] = tested on: NCI-H522 lung
[34] = tested on: NCI/ADR-RES ovarian
[35] = tested on: OVCAR-3 ovarian
[36] = tested on: OVCAR-4 ovarian
[37] = tested on: OVCAR-5 ovarian
[38] = tested on: OVCAR-8 ovarian
[39] = tested on: PC-3 prostate
[40] = tested on: RPMI-8226 leukemia
[41] = tested on: RXF 393 renal
[42] = tested on: SF-268 CNS
[43] = tested on: SF-295 CNS
[44] = tested on: SF-539 CNS
[45] = tested on: SK-MEL-2 melanoma
[46] = tested on: SK-MEL-28 melanoma
[47] = tested on: SK-MEL-5 melanoma
[48] = tested on: SK-OV-3 ovarian
[49] = tested on: SN12C renal
[50] = tested on: SNB-19 CNS
[51] = tested on: SR leukemia
[52] = tested on: SW-620 colon
[53] = tested on: T-47D breast
[54] = tested on: TK-10 renal
[55] = tested on: U251 CNS
[56] = tested on: UACC-257 melanoma
[57] = tested on: UACC-62 melanoma
[58] = tested on: UO-31 renal

Molecule CC(C)(C)c1ccc(C(C)(C)C)c(N2C(=O)[C@@H]3[C@@H]4C=C[C@@H](C4)[C@]3(C)C2=O)c1 has a TGI [1] of 40.2 µM, a TGI [2] of 69.8 µM and a TGI [3] of over 100 µM. For the same molecule, the TGI [4] was over 100 µM, the TGI [5] was 57.7 µM and the TGI [6] was over 100 µM. For the same molecule, the TGI [7] was 32 µM, the TGI [8] was over 100 µM and the TGI [9] was 53.5 µM. It also gave a TGI [10] of over 100 µM, a TGI [11] of 29.1 µM and a TGI [12] of 40.9 µM. It also gave a TGI [13] of 42.9 µM, a TGI [14] of 40.4 µM and a TGI [15] of over 100 µM. For the same molecule, the TGI [16] was 9.64 µM, the TGI [17] was 59.9 µM and the TGI [18] was over 100 µM. For the same molecule, the TGI [19] was 39.9 µM, the TGI [20] was over 100 µM and the TGI [21] was over 100 µM. It also gave a TGI [22] of 26.8 µM, a TGI [23] of 51.3 µM and a TGI [24] of 53 µM. It also gave a TGI [25] of over 100 µM, a TGI [26] of over 100 µM and a TGI [27] of 32.4 µM. It also gave a TGI [28] of 31.9 µM, a TGI [29] of 61 µM and a TGI [30] of over 100 µM. It also gave a TGI [31] of over 100 µM, a TGI [32] of over 100 µM and a TGI [33] of 47.4 µM. The TGI [34] was over 100 µM, the TGI [35] was 53 µM and the TGI [36] was 26.7 µM. The TGI [37] was over 100 µM, the TGI [38] was 33.4 µM and the TGI [39] was 72.6 µM. The TGI [40] was 49.1 µM, the TGI [41] was 32.2 µM and the TGI [42] was 74 µM. It also gave a TGI [43] of over 100 µM, a TGI [44] of over 100 µM and a TGI [45] of 53.1 µM. For the same molecule, the TGI [46] was over 100 µM, the TGI [47] was over 100 µM and the TGI [48] was over 100 µM. For the same molecule, the TGI [49] was 52.3 µM, the TGI [50] was over 100 µM and the TGI [51] was 39.9 µM. It also gave a TGI [52] of 62.6 µM, a TGI [53] of 82.6 µM and a TGI [54] of over 100 µM. The TGI [55] was 52.5 µM, the TGI [56] was 74.4 µM and the TGI [57] was 46.7 µM. For the same molecule, the TGI [58] was over 100 µM.

With C1CSC(Sc2nc(SC3=NCCS3)nc(SC3=NCCS3)n2)=N1 the TGI [1] was over 100 µM, the TGI [2] was over 100 µM and the TGI [3] was over 100 µM. The TGI [4] was over 100 µM, the TGI [5] was over 100 µM and the TGI [6] was over 100 µM. It also gave a TGI [7] of over 100 µM, a TGI [8] of over 100 µM and a TGI [9] of over 100 µM. The TGI [10] was over 100 µM, the TGI [11] was over 100 µM and the TGI [12] was over 100 µM. It also gave a TGI [13] of over 100 µM, a TGI [14] of over 100 µM and a TGI [15] of over 100 µM. It also gave a TGI [16] of over 100 µM, a TGI [17] of over 100 µM and a TGI [18] of over 100 µM. For the same molecule, the TGI [19] was over 100 µM, the TGI [20] was over 100 µM and the TGI [21] was over 100 µM. For the same molecule, the TGI [22] was over 100 µM, the TGI [23] was over 100 µM and the TGI [24] was over 100 µM. It also gave a TGI [25] of over 100 µM, a TGI [26] of over 100 µM and a TGI [27] of over 100 µM. It also gave a TGI [28] of over 100 µM, a TGI [29] of over 100 µM and a TGI [30] of over 100 µM. For the same molecule, the TGI [31] was over 100 µM, the TGI [32] was over 100 µM and the TGI [33] was over 100 µM. It also gave a TGI [34] of over 100 µM, a TGI [35] of over 100 µM and a TGI [36] of over 100 µM. It also gave a TGI [37] of over 100 µM, a TGI [38] of over 100 µM and a TGI [39] of over 100 µM. It also gave a TGI [40] of over 100 µM, a TGI [41] of over 100 µM and a TGI [42] of over 100 µM. It also gave a TGI [43] of over 100 µM, a TGI [44] of over 100 µM and a TGI [45] of over 100 µM. It also gave a TGI [46] of over 100 µM, a TGI [47] of over 100 µM and a TGI [48] of over 100 µM. The TGI [49] was over 100 µM, the TGI [50] was over 100 µM and the TGI [51] was over 100 µM. For the same molecule, the TGI [52] was over 100 µM, the TGI [53] was over 100 µM and the TGI [54] was over 100 µM. The TGI [55] was over 100 µM, the TGI [56] was over 100 µM and the TGI [57] was over 100 µM. It also gave a TGI [58] of over 100 µM.

CC(=O)NCCC1CNc2ccccc21 (configuration not stated) gave a TGI [2] of over 100 µM, a TGI [3] of over 100 µM and a TGI [4] of over 100 µM. For the same molecule, the TGI [5] was over 100 µM, the TGI [6] was over 100 µM and the TGI [7] was over 100 µM. It also gave a TGI [8] of over 100 µM, a TGI [9] of over 100 µM and a TGI [10] of over 100 µM. It also gave a TGI [11] of over 100 µM, a TGI [12] of over 100 µM and a TGI [13] of over 100 µM. The TGI [14] was over 100 µM, the TGI [16] was over 100 µM and the TGI [17] was over 100 µM. The TGI [18] was over 100 µM, the TGI [19] was over 100 µM and the TGI [20] was over 100 µM. It also gave a TGI [21] of over 100 µM, a TGI [22] of over 100 µM and a TGI [23] of over 100 µM. For the same molecule, the TGI [24] was over 100 µM, the TGI [25] was over 100 µM and the TGI [26] was over 100 µM. The TGI [27] was over 100 µM, the TGI [28] was over 100 µM and the TGI [29] was over 100 µM. It also gave a TGI [30] of over 100 µM, a TGI [31] of over 100 µM and a TGI [32] of over 100 µM. For the same molecule, the TGI [33] was over 100 µM, the TGI [34] was over 100 µM and the TGI [35] was over 100 µM. The TGI [36] was over 100 µM, the TGI [37] was over 100 µM and the TGI [38] was over 100 µM. It also gave a TGI [39] of over 100 µM, a TGI [40] of over 100 µM and a TGI [41] of over 100 µM. It also gave a TGI [42] of over 100 µM, a TGI [43] of over 100 µM and a TGI [44] of over 100 µM. For the same molecule, the TGI [45] was over 100 µM, the TGI [46] was over 100 µM and the TGI [47] was over 100 µM. The TGI [48] was over 100 µM, the TGI [49] was over 100 µM and the TGI [50] was over 100 µM. It also gave a TGI [51] of over 100 µM, a TGI [52] of over 100 µM and a TGI [53] of over 100 µM. For the same molecule, the TGI [54] was over 100 µM, the TGI [55] was over 100 µM and the TGI [56] was over 100 µM. It also gave a TGI [57] of over 100 µM and a TGI [58] of over 100 µM.
